Results as given in patent publication US20040097595A1, “Phthalamide derivatives, insecticides for agricultural and horticultural use and method for application thereof” (priority 2001, published 2004).

How the values were obtained:
[1] = tested on: Diamond Back Moth (Plutella xylostella); test: Test Example 1: insecticidal effect on diamond back moth, Chinese cabbage seedling with eggs immersed in liquid chemical; type: in vivo; conditions: eggs on Chinese cabbage seedling immersed about 30 seconds, six days after immersion, 25° C.
From the text: Insecticidal Effect on Diamond Back Moth (Plutella xylostella)
Adult diamond back moths were released and allowed to oviposit on a Chinese cabbage seedling. Two days after the release, the seedling having the eggs deposited thereon was immersed for about 30 seconds in a liquid chemical prepared by diluting a preparation containing each compound listed in Table 1 or 2 as an active ingredient to adjust the prescribed concentration. After air-dryness, it was allowed to stand in a room thermostatted at 25° C. Six days after the immersion, the hatched insects were counted. The mortality was calculated according to the following equation and the insecticidal effect was judged according to the criterion shown below. The test was carried out with triplicate groups of 10 insects. [formula]

[2] = tested on: Common Cutworm (Spodoptera litura); test: Test Example 2: insecticidal effect on common cutworm, cabbage leaf immersion; type: in vivo; conditions: cabbage leaf immersed, second-instar larvae, eight days after inoculation, 25° C.
From the text: Insecticidal Effect on Common Cutworm (Spodoptera litura)
A piece of cabbage leaf (cultivar; Shikidori) was immersed for about 30 seconds in a liquid chemical prepared by diluting a preparation containing each compound listed in Table 1 or 2 as an active ingredient to adjust the prescribed concentration. After air-dryness, it was placed in a plastic Petri dish with a diameter of 9 cm and inoculated with second-instar larvae of common cutworm, after which the dish was closed and then allowed to stand in a room thermostatted at 25° C. Eight days after the inoculation, the dead and alive were counted. The mortality was calculated according to the following equation and the insecticidal effect was judged according to the criterion shown in Test Example 1. The test was carried out with triplicate groups of 10 insects. [formula]

SMILES	Test Example 1 insecticidal effect (mortality grade) ([1]; 5 ppm)	Test Example 1 insecticidal effect (mortality grade) ([1]; 50 ppm)	Test Example 2 insecticidal effect (mortality grade) ([2]; 5 ppm)	Test Example 2 insecticidal effect (mortality grade) ([2]; 50 ppm)	mortality at 5 ppm ([1]; Plutella xylostella, 144 h, 5 ppm, read-out: Test Example 1 insecticidal effect (mortality grade)) [%]	mortality at 50 ppm ([1]; Plutella xylostella, 144 h, 50 ppm, read-out: Test Example 1 insecticidal effect (mortality grade)) [%]	mortality at 5 ppm ([2]; Spodoptera litura, 192 h, 5 ppm, read-out: Test Example 2 insecticidal effect (mortality grade)) [%]	mortality at 50 ppm ([2]; Spodoptera litura, 192 h, 50 ppm, read-out: Test Example 2 insecticidal effect (mortality grade)) [%]
CSCC(C)(C)NC(=O)c1c(I)cccc1C(=O)Nc1ccc(C(F)(F)F)cc1Cl [Compound 1-20]	A (Mortality 100%)	A (Mortality 100%)	A (Mortality 100%)	A (Mortality 100%)				
C[S+]([O-])CC(C)(C)NC(=O)c1c(I)cccc1C(=O)Nc1ccc(C(F)(F)F)cc1Cl (centres unmarked) [Compound 1-21]	A (Mortality 100%)	A (Mortality 100%)	C (Mortality 89-80%)	A (Mortality 100%)				
CC(C)(CS(C)(=O)=O)NC(=O)c1c(I)cccc1C(=O)Nc1ccc(C(F)(F)F)cc1Cl [Compound 1-22]	A (Mortality 100%)	A (Mortality 100%)	C (Mortality 89-80%)	A (Mortality 100%)				
CSCC(C)(C)NC(=O)c1c(I)cccc1C(=O)Nc1ccc(-c2ccc(Cl)cc2)cc1Cl [Compound 1-38]	A (Mortality 100%)	A (Mortality 100%)	E (Mortality 49-0%)	A (Mortality 100%)				
CSCC(C)(C)NC(=O)c1c(I)cccc1C(=O)Nc1ccc(OC(F)F)c(Cl)c1Cl [Compound 1-43]	A (Mortality 100%)	A (Mortality 100%)	A (Mortality 100%)	A (Mortality 100%)				
C[S+]([O-])CC(C)(C)NC(=O)c1c(I)cccc1C(=O)Nc1ccc(OC(F)F)c(Cl)c1Cl (centres unmarked) [Compound 1-44]	A (Mortality 100%)	A (Mortality 100%)	E (Mortality 49-0%)	A (Mortality 100%)				
CC(C)(CS(C)(=O)=O)NC(=O)c1c(I)cccc1C(=O)Nc1ccc(OC(F)F)c(Cl)c1Cl [Compound 1-45]	A (Mortality 100%)	A (Mortality 100%)	E (Mortality 49-0%)	A (Mortality 100%)				
CSCC(C)(C)NC(=O)c1c(I)cccc1C(=O)Nc1ccc(OC(F)(F)Cl)cc1Cl [Compound 1-48]	A (Mortality 100%)	A (Mortality 100%)	A (Mortality 100%)	A (Mortality 100%)				
C[S+]([O-])CC(C)(C)NC(=O)c1c(I)cccc1C(=O)Nc1ccc(OC(F)(F)F)cc1Cl (centres unmarked) [Compound 1-52, N^1-[2-chloro-4-(trifluoromethoxy)phenyl]-N^2-(1,1-dimethyl-2methylsulfinylethyl)-3-iodophthalamide]					100	100	100	100
CSCC(C)(C)NC(=O)c1c(I)cccc1C(=O)Nc1ccc(OC(F)(F)C(F)Cl)cc1Cl (centres unmarked) [Compound 1-58]	E (Mortality 49-0%)	A (Mortality 100%)	E (Mortality 49-0%)	A (Mortality 100%)				
CSCC(C)(C)NC(=O)c1c(I)cccc1C(=O)Nc1ccc(OC(C(F)(F)F)C(F)(F)F)cc1Cl [Compound 1-64]	A (Mortality 100%)	A (Mortality 100%)	A (Mortality 100%)	A (Mortality 100%)				
CSCC(C)(C)NC(=O)c1c(I)cccc1C(=O)Nc1ccc(OC(F)(F)C(F)C(F)(F)F)c(Cl)c1Cl (centres unmarked) [Compound 1-66, 3-iodo-N^1-[2,3-dichloro-4-(1,1,2,3,3,3-hexafluoropropoxy)phenyl]-N^2-[(1,1-dimethyl-2-methylthio)ethyl]phthalamide]	E (Mortality 49-0%)	A (Mortality 100%)	E (Mortality 49-0%)	A (Mortality 100%)				
C[S+]([O-])CC(C)(C)NC(=O)c1c(I)cccc1C(=O)Nc1ccc(OC(F)(F)C(F)C(F)(F)F)cc1Cl (centres unmarked) [Compound 1-67]	A (Mortality 100%)	A (Mortality 100%)	E (Mortality 49-0%)	A (Mortality 100%)				
CC(C)(CS(C)(=O)=O)NC(=O)c1c(I)cccc1C(=O)Nc1ccc(OC(F)(F)C(F)C(F)(F)F)cc1Cl (centres unmarked) [Compound 1-68]	A (Mortality 100%)	A (Mortality 100%)	E (Mortality 49-0%)	A (Mortality 100%)				
CSCC(C)(C)NC(=O)c1c(I)cccc1C(=O)Nc1ccc(OC(F)(F)C(F)C(F)(F)F)c(Cl)c1Cl (centres unmarked) [Compound 1-69]	A (Mortality 100%)	A (Mortality 100%)	E (Mortality 49-0%)	A (Mortality 100%)				
C[S+]([O-])CC(C)(C)NC(=O)c1c(I)cccc1C(=O)Nc1ccc(OC(F)(F)C(F)C(F)(F)F)c(Cl)c1Cl (centres unmarked) [Compound 1-70]	A (Mortality 100%)	A (Mortality 100%)	E (Mortality 49-0%)	A (Mortality 100%)				
CC(C)(CS(C)(=O)=O)NC(=O)c1c(I)cccc1C(=O)Nc1ccc(OC(F)(F)C(F)C(F)(F)F)c(Cl)c1Cl (centres unmarked) [Compound 1-71]	A (Mortality 100%)	A (Mortality 100%)	E (Mortality 49-0%)	A (Mortality 100%)				
CSCC(C)(C)NC(=O)c1c(I)cccc1C(=O)Nc1cc(Cl)c(OC(F)(Cl)C(F)(Cl)C(F)(F)F)cc1Cl (centres unmarked) [Compound 1-73]	E (Mortality 49-0%)	A (Mortality 100%)	E (Mortality 49-0%)	A (Mortality 100%)				
CSCC(C)(C)NC(=O)c1c(I)cccc1C(=O)Nc1ccc(OC(F)(F)C(F)OC(F)(F)F)cc1Cl (centres unmarked) [Compound 1-74]	A (Mortality 100%)	A (Mortality 100%)	E (Mortality 49-0%)	A (Mortality 100%)				
C[S+]([O-])CC(C)(C)NC(=O)c1c(I)cccc1C(=O)Nc1ccc(OC(F)(F)C(F)OC(F)(F)F)cc1Cl (centres unmarked) [Compound 1-75]	A (Mortality 100%)	A (Mortality 100%)	E (Mortality 49-0%)	A (Mortality 100%)				
